Tests used:
platelets = assay: Reversible block of in vitro ADP- and collagen-induced aggregation by second messenger effectors; format: cell-based; conditions: agonist (ADP, collagen)-induced
Source text: The reversible inhibition induced by this formulation effectively reduces the development of the platelet storage lesion when platelets are cryopreserved. The following is a brief description of the second messenger pathways manipulated in order to control activation of platelets during storage, and the specific inhibitors used to abrogate the initiation of the respective pathways.

[1] = Phase I/II carboplatin study: clinical tolerance, adverse events, anti-TPO antibodies; format: in vivo, humans
recurrent ovarian cancer = conditions: 800 mg/m^2 without cytokine support, 30 patients (Ozols et al., 1987); cited from earlier work
[2] = test system: carboplatin-induced thrombocytopenia; assay: Phase I/II study of subcutaneous rhTPO prior to and following carboplatin in gynecologic malignancy: hematologic effects; conditions: for Number (%) of Patients Requiring Platelet Transfusions: Cycle-1 (Carboplatin) or Cycle-2 (Carboplatin+ rhTPO)
Source text: Carboplatin is effective in advanced-stage platin-sensitive recurrent disease; however, cumulative thrombocytopenia is frequently dose-limiting. […] During dose-escalation phase, rhTPO was given by S.C. injection as a single dose (0.6, 1.2, 2.4, 3.6 mcg/kg) prior to carboplatin and for four doses following a second cycle of carboplatin. […]
The inventor performed a phase I/II study of rhTPO prior to and following carboplatin in 29 patients with advanced gynecologic malignancy. During the dose-escalation phase, rhTPO was administered by subcutaneous injection as a single dose (0.6, 1.2, 2.4, and 3.6 mcg/kg) prior to carboplatin, and for four doses following a second cycle of carboplatin. During dose-expansion phase (n=12). rhTPO was used at the optimal biologic dose only as a secondary prophylaxis for severe thrombocytopenia.
The study included two components, a dose-escalation (safety) component and dose-expansion (activity) component using the optimal dose. During the dose-escalation part of this trial, rhTPO was administered as a single dose by subcutaneous injection 3 weeks before chemotherapy in order to evaluate clinical tolerance and the hematopoietic effects of rhTPO alone. […] Thus Cycle- 1 (chemotherapy alone) served as an internal control for each patient for Cycle-2 (chemotherapy with rhTPO).
At least three patients were entered at each dose level of rhTPO (0.6, 1.2, 2.4, and 3.6 mcg/m^2/d). […] In the subsequent cycles, rhTPO was used at OBD as a secondary prophylaxis by same schedule [days 2, 4, 6, 8 (n=6)] or by a modified schedule [days -1, 1, 3, 5 (n=6)]. The latter schedule was used to assess whether earlier administration of TPO can further augment the degree of protection.
Patients received platelet transfusions for severe thrombocytopenia (i.e. platelet count <20,000/mm^3), RBC transfusions for anemia (i.e. hemoglobin [Hb]<8 gm/dL), and antibiotics for neutropenic fever (i.e. temperature ≥38.3°C and absolute neutrophil count <500/mm^3) or when clinically indicated. The use of G-CSF was not allowed during the first two cycles of chemotherapy, but was allowed in the later cycles (3 - 6) only if clinically indicated (i.e. as a secondary prophylaxis in those patients who experienced prolonged neutropenia or delayed neutrophil recovery).
(§1) Before and during the course of the clinical trial, patients were monitored with complete history, physical examinations, and laboratory tests including complete blood cell counts, serum chemistry, urinalysis, chest X-ray, and electrocardiograph. Blood counts were performed three times a week until the expected nadir period was reached and then daily until the counts had recovered. Serum samples were examined for antibodies reactive to full length TPO three times prior to study and weekly while on study. Positive sera (optical density ratio ≥1.5) were further analyzed by anti-truncated TPO antibody assay, C-mpl blocking assay, and cell-proliferation biologic assay. Patients positive in all assays were considered to be at risk for antibody-induced thrombocytopenia. Bone marrow (BM) aspiration and biopsy were done in all patients before, and one week after rhTPO treatment, and in selected patients at a later time point (day 10 or 14) in the prechemotherapy cycle. Tumor response was evaluated by physical examination, tumor marker (CA-125) evaluation, and imaging studies performed at periodic intervals.
Hematopoietic toxicity from Cycle-1 1 of chemotherapy (no rhTPO) was compared with the results from Cycle-2 (with rhTPO) by means of a paired T test for continuously measured variables.

gynecologic malignancy = assay: Phase I/II carboplatin study: tumor response; format: in vivo, humans; conditions: carboplatin AUC 11 with or without rhTPO, 25 evaluable patients
Description: as §1

[3] = Cycle-1 Carboplatin alone or Cycle-2 Carboplatin + rhTPO, n=27
[4] = 22 patients, C-1 (C) or C-2 (C+T), mean ± SEM

**Q.** With Nc1ncnc2c1ncn2[C@@H]1O[C@H](CO)[C@@H](O)[C@H]1O [Adenosine] as the compound, how does the “effect on in vitro aggregation of platelets” value (platelets) read?
**A.** The value was “reversibly inhibits”.

**Q.** Which “effect on in vitro aggregation of platelets” value (platelets) does the source give for N=C(N)NC(=O)c1nc(Cl)c(N)nc1N [Amiloride] here?
**A.** Its value is “effectively and reversibly blocks”.

**Q.** For N.N.O=C([O-])C1(C(=O)[O-])CCC1.[Pt+2] [Carboplatin], which “Fever, number of patients” value ([1]; Cycle-1 Carboplatin alone n=27 or Cycle-2 Carboplatin + rhTPO n=27) is on record?
**A.** The value was 12.

**Q.** And the “Anorexia, number of patients” value [1, 3]?
**A.** Its value is 14.

**Q.** What about the “Anorexia, number of patients experiencing grade ≥3 toxicity” value [1, 3] of the same compound?
**A.** The value was 1.

**Q.** And the “Bone pain, number of patients” value [1, 3]?
**A.** The value was 7.

**Q.** And the “Chills, number of patients” value [1, 3]?
**A.** Its value is 8.

**Q.** And the “Constipation, number of patients” value [1, 3]?
**A.** The value was 11.

**Q.** What about the “Constipation, number of patients experiencing grade ≥3 toxicity” value [1, 3] of the same compound?
**A.** The value was 2.

**Q.** And the “Diarrhea, number of patients” value [1, 3]?
**A.** The value was 8.

**Q.** And the “Diarrhea, number of patients experiencing grade ≥3 toxicity” value [1, 3]?
**A.** Its value is 1.

**Q.** What about the “Fatigue, number of patients” value [1, 3] of the same compound?
**A.** The value was 12.

**Q.** What about the “Fatigue, number of patients experiencing grade ≥3 toxicity” value [1, 3] of the same compound?
**A.** Its value is 10.

**Q.** And the “Headache, number of patients” value [1, 3]?
**A.** The value was 11.

**Q.** And the “Headache, number of patients experiencing grade ≥3 toxicity” value [1, 3]?
**A.** The value was 4.

**Q.** And the “Mucositis, number of patients” value [1, 3]?
**A.** The value was 4.

**Q.** And the “Myalgia, number of patients” value [1, 3]?
**A.** The value was 10.

**Q.** And the “Nausea, number of patients” value [1, 3]?
**A.** Its value is 18.

**Q.** What about the “Nausea, number of patients experiencing grade ≥3 toxicity” value [1, 3] of the same compound?
**A.** Its value is 3.

**Q.** What about the “Vomiting, number of patients” value [1, 3] of the same compound?
**A.** The value was 12.

**Q.** What about the “Vomiting, number of patients experiencing grade ≥3 toxicity” value ([1]; Cycle-1 Carboplatin alone, n=27) of the same compound?
**A.** The value was 1.

**Q.** And the Major responses (recurrent ovarian cancer)?
**A.** Its Major responses is 27%.

**Q.** What about the “Nadir PLT” value ([2]; 22 patients, all rhTPO doses, C-1 carboplatin alone (C), C-2 carboplatin + rhTPO (C+T), mean ± SEM) of the same compound?
**A.** The value was 20 ±5 x10^3/mm^3.

**Q.** And the “No. (%) of PTS transfused” value ([2]; 22 patients, C-1 (C) or C-2 (C+T))?
**A.** The value was 11 (50).

**Q.** And the “Days PLT <50 × 10^3/mm^3” value [2, 4]?
**A.** Its value is 6.3 ±1.0 days.

**Q.** What about the “Days PLT <100 × 10^3/mm^3” value [2, 4] of the same compound?
**A.** The value was 10.3 ± 1.3 days.

**Q.** And the “Number (%) of Patients Requiring Platelet Transfusions” value ([2]; All Patients (0.6 - 3.6 mcg/kg) n=27)?
**A.** Its value is 16 (59%).

**Q.** What about the “Number (%) of Patients Requiring Platelet Transfusions” value ([2]; Optimal Biologic Dose (1.2 mcg/kg) n=16) of the same compound?
**A.** The value was 12(75%).

**Q.** And the “incidence of thrombocytopenia requiring platelet transfusions” value ([2]; cycle-1 without rhTPO, secondary prophylaxis patients)?
**A.** Its value is 10 of 12.

**Q.** What about the major tumor response (gynecologic malignancy) of the same compound?
**A.** The major tumor response was 50%.

Reference: EP1146895B1, “THROMBOPOIETIN COMPOSITIONS FOR INCREASING CIRCULATING PLATELETS” (BOARD OF REGENTS, THE UNIVERSITY OF TEXAS SYSTEM, priority 1999, dated 2000)
